Test results taken from patent US12584896B2, “Process for quantification of metal amino acid chelates in solutions and solids” (Premex, Inc., priority 2018, dated 2026).

Assay: pKa's of phytic acid (ionization of phosphate groups)
Format: physicochemical
Description: A liquid sample was reacted with phytic acid. The reaction between the compounds and the phytic acid was at a pH of 3.0. Phytic acid ionization began via phosphates group in the following order: (a) P1, and P3 at a pH of from about 1.5 to about 2.0; (b) P4 and P6 at a pH of from about 2.0 to about 2.5; (c) P2 and at a pH of about 2 .5; and (d) P5 at a pH of from about 3.0 to about 5.0 (see FIGS. 1 and 2).

## O=P(O)(O)O[C@H]1[C@H](OP(=O)(O)O)[C@@H](OP(=O)(O)O)[C@H](OP(=O)(O)O)[C@@H](OP(=O)(O)O)[C@H]1OP(=O)(O)O [phytic acid]
  pKa: 9.3
